Data published in PubChem BioAssay (NCI).
Where “and” joins values, the source holds several entries; their conditions need not be identical. Equal entries are not always repeated.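 Exposure lasted 48 hours, with cells grown in 96-well plates and compounds tested at five concentrations. GI50 is the concentration that inhibits growth by half. TGI: concentration producing complete growth inhibition.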

Assays:
Assay in all cases: DTP human tumour cell line panel, 48 h
SF-539 CNS = system: SF-539 CNS
M19-MEL melanoma = system: M19-MEL melanoma
HOP-62 NSCLC = system: HOP-62 NSCLC
LOX IMVI melanoma = system: LOX IMVI melanoma
DLD-1 colon = system: DLD-1 colon
HCT-15 colon = system: HCT-15 colon
KM20L2 colon = system: KM20L2 colon
DMS 114 small cell lung = system: DMS 114 small cell lung
OVCAR-3 ovarian = system: OVCAR-3 ovarian
UO-31 renal = system: UO-31 renal
PC-3 prostate = system: PC-3 prostate
NCI/ADR-RES ovarian = system: NCI/ADR-RES ovarian

Structure (SMILES)	TGI (SF-539 CNS)	TGI (M19-MEL melanoma) [µM]	TGI (HOP-62 NSCLC)	TGI (LOX IMVI melanoma)	TGI (DLD-1 colon) [µM]	TGI (HCT-15 colon)	TGI (KM20L2 colon) [µM]	TGI (DMS 114 small cell lung) [µM]	TGI (OVCAR-3 ovarian)	TGI (UO-31 renal)	GI50 (PC-3 prostate) [µM]	TGI (PC-3 prostate) [µM]	GI50 (SF-539 CNS) [µM]	GI50 (NCI/ADR-RES ovarian) [µM]	TGI (NCI/ADR-RES ovarian)	GI50 (HOP-62 NSCLC) [µM]	GI50 (LOX IMVI melanoma) [µM]	GI50 (HCT-15 colon) [µM]	GI50 (OVCAR-3 ovarian) [µM]	GI50 (UO-31 renal) [µM]
O=C(Cc1nc2ccccc2s1)Nc1cccc(C(F)(F)F)c1	33.4 µM	25.6	32.7 µM	26.2 µM	29.9	30.3 µM	41.6	36.3	31.8 µM	27.6 µM	–	–	–	–	–	–	–	–	–	–
NCCCNCCCCN(CCCN)/[N+]([O-])=N\O	> 100 µM	> 100	> 100 µM	–	> 100	> 100 µM	> 100	> 100	> 100 µM	> 100 µM	–	–	–	–	–	–	–	–	–	–
COc1ccc(/C=c2\sc3n(c2=O)C(N)=C(C#N)C(c2ccc(OC)cc2)C=3c2nc3ccccc3[nH]2)cc1 (centres undefined)	–	63.8	> 100 µM	35.2 µM	–	59.2 µM	> 100	72.9	44.3 µM	> 100 µM	–	–	–	–	–	–	–	–	–	–
Clc1ccc(C2SCc3nc4ccccc4n32)cc1Cl (centres undefined)	32.3 µM	–	27.8 µM	25.7 µM	25.2	28.4 µM	–	36	22.5 µM	–	–	–	–	–	–	–	–	–	–	–
CCCCCCCCCCCCCP(=O)(O)OCC	> 100 µM	> 100	> 100 µM	> 100 µM	> 100	> 100 µM	> 100	> 100	> 100 µM	> 100 µM	–	–	–	–	–	–	–	–	–	–
C=C(Br)N(CC)CC	> 100 µM	> 100	> 100 µM	> 100 µM	> 100	> 100 µM	> 100	> 100	> 100 µM	> 100 µM	–	–	–	–	–	–	–	–	–	–
C1=CC=C2NCCCNC3=CC=CC=CC3=NCCCN=C2C=C1	> 100 µM	> 100	> 100 µM	> 100 µM	> 100	> 100 µM	> 100	> 100	> 100 µM	> 100 µM	–	–	–	–	–	–	–	–	–	–
COC(=O)CCC(=O)CC(=O)C(=O)Nc1c(Cl)cc([N+](=O)[O-])cc1Cl	> 100 µM	> 100	> 100 µM	> 100 µM	> 100	> 100 µM	> 100	77.9	> 100 µM	> 100 µM	–	–	–	–	–	–	–	–	–	–
CCc1cccc(C(C)C)c1NC(=O)C(=O)C(CC(=O)Nc1ccc(Cl)c(Cl)c1)C(=O)OC (centres undefined)	> 100 µM	> 100	> 100 µM	> 100 µM	> 100	32.8 µM	> 100	> 100	> 100 µM	> 100 µM	–	–	–	–	–	–	–	–	–	–
C[C@]1(CO)CCC[C@@]2(C)C1CC[C@H]1CC3C[C@]12CC[C@]3(C)O (some centres undefined)	> 100 µM	–	> 100 µM	> 100 µM	> 100	> 100 µM	> 100	> 100	> 100 µM	–	–	–	–	–	–	–	–	–	–	–
CCOC(=O)C1=C(C)N(c2ccc(C)cc2)C2=C(C(=O)N(c3ccccc3)C2c2ccccc2)C1c1ccccc1 (centres undefined)	> 25 µM	> 25	> 25 µM	> 25 µM	> 25	> 25 µM	> 25	> 25	> 25 µM	> 25 µM	–	–	–	–	–	–	–	–	–	–
CN(C)CCNC(=O)c1cccc2c1nc(-c1ccccc1)c1ccccc12	8.02 µM	17.3	18.5 µM	4.03 µM	15.3	13.1 µM	–	–	20.7 µM	6.17 µM	–	–	–	–	–	–	–	–	–	–
Cc1cc(C)nc(NS(=O)(=O)c2ccc(Nc3c4ccc(Cl)cc4nc4c(C(=O)Nc5ccc(S(N)(=O)=O)cc5)cccc34)cc2)n1	37.9 µM	> 100	37.8 µM	34.8 µM	32	36.2 µM	33.1	65	30.2 µM	39.2 µM	–	–	–	–	–	–	–	–	–	–
O=C(CCC(=O)C(C(=O)c1ccccc1)c1ccccc1)Nc1cccc(C(F)(F)F)c1 (centres undefined)	> 100 µM	> 100	–	> 100 µM	> 100	> 100 µM	> 100	> 100	> 100 µM	> 100 µM	–	–	–	–	–	–	–	–	–	–
CCCCCCCCCCCC1CCCC(C)N1 (centres undefined)	24.8 µM and 141 µM	130	46 µM and 107 µM	16.1 µM and > 70.7 µM	83.4	13.3 µM and 104 µM	85.9	139	28.7 µM and 121 µM	16.4 µM and 105 µM	5.57	45	12.2	11.9	27.3 µM and 161 µM	14.8	3.62	2.85	12	3.29
COc1cc2c3c(c1OC)-c1c(ccc4c1OCO4)CC3(C#N)N(C(=O)c1ccccc1)CC2 (centres undefined)	> 100 µM	> 100	> 100 µM	> 100 µM	> 100	> 100 µM	> 100	> 100	> 100 µM	> 100 µM	–	–	–	–	–	–	–	–	–	–
CC1C[C@@H]2C(=O)NC(=O)[C@@H]2c2c1c1ccccc1n2C (some centres undefined)	> 100 µM	> 100	> 100 µM	> 100 µM	> 100	> 100 µM	> 100	> 100	> 100 µM	> 100 µM	–	–	–	–	–	–	–	–	–	–
